Assay results published in US20030134901A1, “Lipoxin compounds and their use in treating cell proliferative disorders” (priority 1993, published 2003).

Experiments:
human skin fibroblasts = test: Fibroblast proliferation, MTT assay; type: cell-based; conditions: Homo sapiens, Skin fibroblast; 100 nM, n=3
Excerpt: Human type II epithelial A549 cells from human lung carcinoma and normal human skin fibroblast (breast) were obtained from the American Type Culture Collection (Rockville, Md.). The A549 cell line originated from a human alveolar cell carcinoma and was a useful cell line because it was easily assessable and could be maintained in culture without contaminating tissue macrophages. (Lieber, M., et al (1976) A continuous tumor-cell line from a human lung carcinoma with properties of type II alveolar epithelial cells. Int. J Cancer Fibroblasts were utilized within their limited window of viability and their passage numbers were recorded (results are reported for cells from 3-5 passages). Epithelial A549 cells were seeded into T-75 cm^2 tissue culture flasks and maintained in F-12K medium supplemented with 10% heat-inactivated FBS, penicillin (50 U/mL) and streptomycin (50 (g/mL). Human PMN from healthy donors who had not taken ASA or other medications for at least two weeks were obtained by Ficoll-Hypaque gradient centrifugation and dextran sedimentation, (Böyum A. (1968) Isolation of mononuclear cells and granulocytes from human blood. […] Viability of A549 cells and PMN was determined by their ability to exclude trypan blue and were 95±2 and 97±1%, respectively.
A microculture 3,(4,5-dimethylthiazoyl-2-yl) 2,5 (diphenyl-tetrazolium bromide) (MTT) assay, (Marshall, N. J., et al. (1995) A critical assessment of the use of microculture tetrazolium assays to measure cell growth and function. Growth Regul. 5: 69-84.), was used to examine the actions of LXs and other eicosanoids on cell proliferation. A549 cells and fibroblasts from exponential-phase maintenance cultures were counted and dispensed within replicate 96-well culture plates in 100 μl volumes of medium (˜2000 cells/well). […] Dye solution was aspirated, wells were washed once with HBSS and dye taken up by the cells was extracted in 100 μl of isopropyl alcohol:1 N HCl (96:4, v/v) and quantitated at 570 nm using a microplate reader (Molecular Devices, Menlo Park, Calif.). […]

[1] = system: peripheral blood monocytes; test: LXA4 metabolism by peripheral blood monocytes; type: in vitro ADME, human; conditions: within 30 s
Experimental: Human PMN were obtained from healthy volunteers by gradient centrifugation of heparinized fresh venous blood (Böyum, A. ([…]) Scand. J. Clin. Lab. Invest. 21:77). HL-60 cells were seeded in RPMI supplemented with penicillin (100 U/ml), streptomycin (100 μ/ml), fetal bovine serum (10%) (Hyclone, Logan, Utah) and incubated (37° C. with 5% CO2 atmosphere) in plastic 250 ml flasks. Individual flasks containing […] HL-60 cells/ml were incubated in the presence or absence of phorbol 12-myristate 13-acetate (PMA) (10 or 16 nM, 24-27 h) and adherence was monitored for induction of macrophage-like phenotype as in Collins, S. J. (1987) Blood 70:1233. […]
Incubations with eicosanoids were stopped with cold methanol containing either PGB2 or 5-HETE as internal standards (5-HETE was used when 15-oxo-ETE was quantified). […] Formation of 15-oxo-ETE by 100,000 g supernatants (cf. Agins, A. P. et al. (1987) Agents Actions 21:397; Xun, C-Q. et al.(1991) Biochem. J. 279:553; and Sok, D-E. et al. (1988) Biochem. Biophys. Res. Commun. 156:524) was quantified after RP-HPLC using an ODS column (4.6 mm×25 cm) eluted with methanol/H2O/acetic acid (70:30:0.01, v/v/v) monitored at 280 nm with a flow rate of 1 ml/min. […] On-line spectra were recorded using a diode array detector (Hewlett-Packard 1040M series II) equipped with HPLC^3D ChemStation software (DOS series). […]

With `CCCCC[C@H](O)/C=C/C=C\C=C\C=C\[C@@H](O)[C@@H](O)CCCC(=O)O` [LXA4, (5S, 6R, 15S)-trihydroxy-7E, 9E, 11Z, 13E-eicosatetraenoic acid] the inhibition at 0.1 µM (human skin fibroblasts) was 10.7% and the LXA4 converted [1] was > 60%.
